Reference: patent publication US12673954B2 (BRISTOL-MYERS SQUIBB COMPANY, priority 2021, dated 2026)
Like-named read-outs stand apart in the source and are kept apart here.

How the values were obtained:
[1] = system: IRF pathway, THP1-Dual™ cells; experiment: STING reporter assay in THP1-Dual cells, IRF pathway (Lucia luciferase, QUANTI-Luc); format: cell-based, human; conditions: THP1-Dual cells, 10% human plasma, 20 hours, Lucia luciferase, 100% activation = 100 μM cGAMP, read-out: IRF (EC50 μM)
In short: (§1)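 THP-1-derived dual-reporter cells treated with serially diluted compounds (final top concentration 100 μM) for 20 h at 37° C. NF-κB read as SEAP via QUANTI-Blue at OD620; IRF read as Lucia luminescence via QUANTI-Luc after 5 min. 100% activation set by 100 μM cGAMP, baseline by DMSO.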

[2] = system: NF-κB pathway, THP1-Dual™ cells; experiment: STING reporter assay in THP1-Dual cells, NF-κB pathway (SEAP, QUANTI-Blue); format: cell-based, human; conditions: THP1-Dual cells, 10% human plasma, 20 hours, SEAP, 100% activation = 100 μM cGAMP, read-out: NFkB (EC50 μM)
In short: as §1

Row | Structure (SMILES) | EC50 ([1]; Homo sapiens, THP1-Dual, 20 h) | EC50 ([2]; Homo sapiens, THP1-Dual, 20 h) | EC50 [1] | EC50 [2]
1 | O=C(OCC(F)(F)F)c1ccc(Cl)c2cc(CNC(=O)c3cnn4cccnc34)oc12 [EXAMPLE 357, 2,2,2-Trifluoroethyl 4-chloro-2-((pyrazolo[1,5-a]pyrimidine-3-carboxamido)methyl)benzofuran-7-carboxylate] | 0.9 µM | 1 µM |  | 
2 | Cc1ccc(C(=O)OCC(F)(F)F)c2oc(CNC(=O)c3cnn4cccnc34)cc12 [EXAMPLE 358, 2,2,2-Trifluoroethyl 4-methyl-2-((pyrazolo[1,5-a]pyrimidine-3-carboxamido)methyl)benzofuran-7-carboxylate] | 2.9 µM | 2 µM |  | 
3 | Cc1ccc(C(=O)OCC(F)(F)F)c2oc(Cn3ccc4ccncc4c3=O)cc12 [EXAMPLE 359] | 3.8 µM | 4 µM |  | 
4 | Cc1ccc(C(=O)OCC(F)(F)F)c2oc(Cn3cnc4ccncc4c3=O)cc12 [EXAMPLE 360] | 2.8 µM | 3.4 µM |  | 
5 | Cc1ccc(C(=O)OCC(F)(F)F)c2oc(CN3CCc4ccncc4C3=O)cc12 [EXAMPLE 361] | 5.5 µM | 7.2 µM |  | 
6 | O=C(OCC(F)(F)F)c1cc(F)cc2cc(Cn3ccc4ccncc4c3=O)oc12 [EXAMPLE 362, 2,2,2-Trifluoroethyl 5-fluoro-2-((1-oxo-2,7-naphthyridin-2(1H)-yl)methyl)benzofuran-7-carboxylate] | 5.7 µM | 4.6 µM |  | 
7 | O=C(OCC(F)(F)F)c1cc(F)cc2cc(Cn3cnc4ccncc4c3=O)oc12 [EXAMPLE 363, 2,2,2-Trifluoroethyl 5-fluoro-2-((4-oxopyrido[4,3-d]pyrimidin-3(4H)-yl)methyl)benzofuran-7-carboxylate] | 3.5 µM | 3.2 µM |  | 
8 | CC(OC(=O)c1cc(F)cc2cc(Cn3cnc4ccncc4c3=O)oc12)C(F)(F)F (stereo not drawn) [EXAMPLE 364, 1,1,1-Trifluoropropan-2-yl 5-fluoro-2-((4-oxopyrido[4,3-d]pyrimidin-3(4H)-yl)methyl)benzofuran-7-carboxylate] |  |  | 35 µM | 21 µM
9 | CC(OC(=O)c1cc(F)cc2cc(Cn3cnc4ccncc4c3=O)oc12)C(F)(F)F (stereo not drawn) [EXAMPLE 365, 1,1,1-Trifluoropropan-2-yl 5-fluoro-2-((4-oxopyrido[4,3-d]pyrimidin-3(4H)-yl)methyl)benzofuran-7-carboxylate] |  |  | 7.5 µM | 4.4 µM
10 | O=C(Cc1cc(F)cc2cc(CNC(=O)c3cnn4cccnc34)oc12)OCC(F)(F)F [EXAMPLE 366, 2,2,2-Trifluoroethyl 2-(5-fluoro-2-((pyrazolo[1,5-a]pyrimidine-3-carboxamido)methyl)benzofuran-7-yl)acetate] | 4 µM | 4 µM |  | 
11 | C[C@@H](OC(=O)Cc1cc(F)cc2cc(CNC(=O)c3cnn4cccnc34)oc12)C(F)(F)F [EXAMPLE 367, (R)-1,1,1-Trifluoropropan-2-yl 2-(5-fluoro-2-((pyrazolo[1,5-a]pyrimidine-3-carboxamido)methyl)benzofuran-7-yl)acetate] | 7.5 µM | 9.5 µM |  | 
12 | O=C(OCC(F)(F)F)c1cc(Cl)cc2cc(CNC(=O)c3cnc4cccnn34)oc12 [EXAMPLE 369, 2,2,2-Trifluoroethyl 5-chloro-2-((imidazo[1,2-b]pyridazine-3-carboxamido)methyl)benzofuran-7-carboxylate] | 0.91 µM | 1.1 µM |  | 
13 | O=C(OCC(F)(F)F)c1cc(Cl)cc2cc(CN3CCc4ccncc4C3=O)oc12 [EXAMPLE 370, 2,2,2-Trifluoroethyl 5-chloro-2-((1-oxo-3,4-dihydro-2,7-naphthyridin-2(1H)-yl)methyl)benzofuran-7-carboxylate] | 13 µM | 16 µM |  | 
14 | O=C(OCC(F)(F)F)c1cc(Cl)cc2cc(Cn3cnc4ccncc4c3=O)oc12 [EXAMPLE 371, 2,2,2-Trifluoroethyl 5-chloro-2-((4-oxopyrido[4,3-d]pyrimidin-3(4H)-yl)methyl)benzofuran-7-carboxylate] | 2.5 µM | 2.8 µM |  | 
15 | O=C(OCC(F)(F)F)c1cc(Cl)cc2cc(Cn3ccc4ccncc4c3=O)oc12 [EXAMPLE 372, 2,2,2-Trifluoroethyl 5-chloro-2-((1-oxo-2,7-naphthyridin-2(1H)-yl)methyl)benzofuran-7-carboxylate] | 3.7 µM | 4.6 µM |  | 
16 | O=C(NCc1cc2cc(Cl)cc(C(=O)OCC(F)(F)F)c2o1)c1cnccn1 [EXAMPLE 373, 2,2,2-Trifluoroethyl 5-chloro-2-((pyrazine-2-carboxamido)methyl)benzofuran-7-carboxylate] | 3.9 µM | 3.9 µM |  | 
17 | Cc1cc(C(=O)OCC(F)(F)F)c2oc(Cn3cnc4ccncc4c3=O)cc2c1 [EXAMPLE 374, 2,2,2-Trifluoroethyl 5-methyl-2-((4-oxopyrido[4,3-d]pyrimidin-3(4H)-yl)methyl)benzofuran-7-carboxylate] | 4.3 µM | 3.5 µM |  | 

Row | Structure (SMILES) | EC50 ([1]; Homo sapiens, THP1-Dual, 20 h) | EC50 ([2]; Homo sapiens, THP1-Dual, 20 h) | EC50 [1] | EC50 [2]
18 | Cc1cc(C(=O)OCC(F)(F)F)c2oc(Cn3ccc4ccncc4c3=O)cc2c1 [EXAMPLE 375, 2,2,2-Trifluoroethyl 5-methyl-2-((1-oxo-2,7-naphthyridin-2(1H)-yl)methyl) benzofuran-7-carboxylate] | 2.6 µM | 2.3 µM |  | 
19 | Cc1cc(C(=O)OCC(F)(F)F)c2oc(CN3CCc4ccncc4C3=O)cc2c1 [EXAMPLE 376, 2,2,2-Trifluoroethyl 5-methyl-2-((1-oxo-3,4-dihydro-2,7-naphthyridin-2(1H)-yl)methyl)benzofuran-7-carboxylate] | 19 µM | 16 µM |  | 
20 | Cc1cc(C(=O)OCC(F)(F)F)c2oc(CNC(=O)c3cnn4cccnc34)cc2c1 [EXAMPLE 377, 2,2,2-Trifluoroethyl 5-methyl-2-((pyrazolo[1,5-a]pyrimidine-3-carboxamido)methyl)benzofuran-7-carboxylate] | 0.4 µM | 0.3 µM |  | 
21 | Cc1cc(C(=O)OC(C)C(F)(F)F)c2oc(CNC(=O)c3cnn4cccnc34)cc2c1 (stereo not drawn) [EXAMPLE 378, 1,1,1-Trifluoropropan-2-yl 5-methyl-2-((pyrazolo[1,5-a]pyrimidine-3-carboxamido)methyl)benzofuran-7-carboxylate] | 1.3 µM | 1.2 µM |  | 
22 | CCOC(=O)c1c(C)ccc2cc(CNC(=O)c3cnn4cccnc34)oc12 [EXAMPLE 379, Ethyl 6-methyl-2-((pyrazolo[1,5-a]pyrimidine-3-carboxamido)methyl)benzofuran-7-carboxylate] | 13 µM | 19 µM |  | 
23 | CSC(=O)c1cccc2cc(CNC(=O)c3cnccn3)oc12 [EXAMPLE 381, S-Methyl 2-((pyrazine-2-carboxamido)methyl)benzofuran-7-carbothioate] | 13 µM | 12 µM |  | 
24 | CSC(=O)c1cc(F)cc2cc(CNC(=O)c3cnn4cccnc34)oc12 [EXAMPLE 382, S-Methyl 5-fluoro-2-((pyrazolo[1,5-a]pyrimidine-3-carboxamido)methyl)benzofuran-7-carbothioate] | 1.3 µM | 1.1 µM |  | 
25 | CSC(=O)c1cc(F)cc2cc(CNC(=O)c3cnc4cccnn34)oc12 [EXAMPLE 383, S-Methyl 5-fluoro-2-((imidazo[1,2-b]pyridazine-3-carboxamido)methyl)benzofuran-7-carbothioate] | 0.92 µM | 1.1 µM |  | 
26 | CSC(=O)c1cc(F)cc2cc(CNC(=O)c3cnccn3)oc12 [EXAMPLE 384, S-Methyl 5-fluoro-2-((pyrazine-2-carboxamido)methyl)benzofuran-7-carbothioate] | 3.2 µM | 3 µM |  | 
27 | CSC(=O)c1cc(F)cc2cc(Cn3cnc4ccncc4c3=O)oc12 [EXAMPLE 385, S-Methyl 5-fluoro-2-((4-oxopyrido[4,3-d]pyrimidin-3(4H)-yl)methyl)benzofuran-7-carbothioate] | 2.1 µM | 2.5 µM |  | 
28 | CSC(=O)c1cc(F)cc2cc(CN3CCc4ccncc4C3=O)oc12 [EXAMPLE 386, S-Methyl 5-fluoro-2-((1-oxo-3,4-dihydro-2,7-naphthyridin-2(1H)-yl)methyl)benzofuran-7-carbothioate] | 3.4 µM | 3.7 µM |  | 
29 | CCSC(=O)c1cc(F)cc2cc(CNC(=O)c3cnn4cccnc34)oc12 [EXAMPLE 387, S-Ethyl 5-fluoro-2-((pyrazolo[1,5-a]pyrimidine-3-carboxamido)methyl)benzofuran-7-carbothioate] | 1.9 µM | 2.1 µM |  | 
30 | O=C(SCC(F)(F)F)c1cc(F)cc2cc(CNC(=O)c3cnn4cccnc34)oc12 [EXAMPLE 388, S-(2,2,2-Trifluoroethyl) 5-fluoro-2-((pyrazolo[1,5-a]pyrimidine-3-carboxamido)methyl)benzofuran-7-carbothioate] | 1.5 µM | 1.4 µM |  | 
31 | Cc1cc(C(=O)SCC(F)(F)F)c2oc(CNC(=O)c3cnn4cccnc34)cc2c1 [EXAMPLE 389, S-(2,2,2-Trifluoroethyl) 5-methyl-2-((pyrazolo[1,5-a]pyrimidine-3-carboxamido)methyl)benzofuran-7-carbothioate] | 0.58 µM | 0.56 µM |  | 
32 | CCSC(=O)c1cc(C)cc2cc(CNC(=O)c3cnn4cccnc34)oc12 [EXAMPLE 390, S-Ethyl 5-methyl-2-((pyrazolo[1,5-a]pyrimidine-3-carboxamido)methyl)benzofuran-7-carbothioate] | 0.53 µM | 0.29 µM |  | 
33 | CSC(=O)c1cc(C)cc2cc(CNC(=O)c3cnn4cccnc34)oc12 [EXAMPLE 391, S-Methyl 5-methyl-2-((pyrazolo[1,5-a]pyrimidine-3-carboxamido)methyl)benzofuran-7-carbothioate] | 0.75 µM | 0.61 µM |  | 
